The NIST ThermoML archive (doi:10.1021/je700362q)
± gives the expanded uncertainty stated by the source.

Key:
[1] = refractive index (Na D-line) (dimensionless); settings: 298.15 K; 101.33 kPa; Liquid; Standard Abbe refractometry
[2] = 298.15 K; 101.33 kPa; Liquid; Vibrating tube method

| refractive index [1] | mass density [2] [kg/m3] | Structure (SMILES) |
| --- | --- | --- |
| 1.42048 ± 0.00075 | 764.97 ± 0.31 | CC1CCCCC1 [methylcyclohexane] |
| 1.43329 ± 0.0012 | 1104.42 ± 8.5 | CCCCCCCC[n+]1ccn(C)c1.F[B-](F)(F)F [1-methyl-3-octylimidazolium tetrafluoroborate] |
| 1.52581 ± 0.00073 | 1058.5 ± 0.15 | c1ccsc1 [thiophene] |

| Structure (SMILES) | refractive index [1] | mass density [2] [kg/m3] |
| --- | --- | --- |
| CCCCCCCCn1cc[n+](C)c1.O=S(=O)([N-]S(=O)(=O)C(F)(F)F)C(F)(F)F | 1.43331 ± 0.0012 | 1320.76 ± 12 |
